Consider 22 compounds from PubChem BioAssay (NCI).

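96-well plates; 48 h exposure; 5 concentrations. Endpoints by linear interpolation between flanking doses. Not reached: highest tested concentration assigned. Here, GI50 denotes the concentration required for 50% inhibition of growth. TGI denotes the concentration required for complete inhibition of growth.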

Some test systems named below: DU-145 prostate; HOP-62 NSCLC; LOX IMVI melanoma; M14 melanoma; NCI-H460 lung; OVCAR-3 ovarian; OVCAR-4 ovarian; SK-MEL-2 melanoma; SN12C renal; T-47D breast; HCC-2998 colon; MCF7 breast.
Common to all, as to test: growth of human tumour cells (NCI), 48 h

As to `O=C(O)CSc1cc(-c2ccccc2)nc2ccccc12`, the TGI with DU-145 prostate is over 100 µM; in the experiment with HOP-62 NSCLC, over 100 µM; with LOX IMVI melanoma it was over 100 µM; in the experiment on M14 melanoma it was over 100 µM; with NCI-H460 lung, over 100 µM; with OVCAR-3 ovarian, 49 µM. Besides, the TGI with OVCAR-4 ovarian, with SK-MEL-2 melanoma, in the experiment on SN12C renal and in the experiment on T-47D breast was over 100 µM throughout.
On to `Cc1cc2[nH]c3c(C#N)c(-c4ccccc4)c(N=Nc4cccc(C(F)(F)F)c4)c(=O)n3c2cc1C`, for which the TGI in the experiment with HCC-2998 colon, in the experiment with HOP-62 NSCLC, in the experiment with LOX IMVI melanoma, in the experiment on M14 melanoma, in the experiment on MCF7 breast and in the experiment with NCI-H460 lung was over 100 µM in each case. Moreover, the TGI in the experiment on OVCAR-3 ovarian is 57 µM; in the experiment on OVCAR-4 ovarian, over 100 µM; in the experiment with SK-MEL-2 melanoma it was over 100 µM; with SN12C renal it was over 100 µM; in the experiment on T-47D breast, over 100 µM.
In the case of `NC(=O)CCC(NCc1c2ccccc2[n+]([O-])c2ccccc12)C(=O)O` (centres undefined), the TGI in the experiment on HCC-2998 colon, with HOP-62 NSCLC, with LOX IMVI melanoma, with M14 melanoma, in the experiment on NCI-H460 lung and in the experiment with OVCAR-3 ovarian was over 100 µM in each case. In addition, the TGI with OVCAR-4 ovarian, in the experiment on SK-MEL-2 melanoma and with SN12C renal was over 100 µM throughout.
As for `c1ccc(N=C2SC(=NNc3ccccc3)SC2=Nc2ccccc2)cc1`, the TGI in the experiment with DU-145 prostate, in the experiment on HCC-2998 colon, in the experiment on HOP-62 NSCLC, in the experiment with LOX IMVI melanoma, with NCI-H460 lung and in the experiment with OVCAR-4 ovarian was over 100 µM in each case. Besides, the TGI in the experiment on SK-MEL-2 melanoma, with SN12C renal and in the experiment with T-47D breast was over 100 µM each time.
On to `Cc1ccc2c(c1)NC(=O)CCSSCCC(=O)N2`, for which the TGI in the experiment with DU-145 prostate, in the experiment with HOP-62 NSCLC, with LOX IMVI melanoma, in the experiment on M14 melanoma, in the experiment with NCI-H460 lung and with OVCAR-3 ovarian was over 100 µM in each case. The TGI with OVCAR-4 ovarian, in the experiment with SK-MEL-2 melanoma, in the experiment on SN12C renal and with T-47D breast was over 100 µM each time.
Turning to `Cc1c(-c2cc3n(n2)C(c2cccs2)C(C#N)=C(c2ccccc2)N3)c(=O)n(-c2ccccc2)n1C` (centres undefined), the TGI in the experiment on HCC-2998 colon, in the experiment on HOP-62 NSCLC, in the experiment on LOX IMVI melanoma, in the experiment with MCF7 breast, with NCI-H460 lung and with OVCAR-3 ovarian was over 100 µM each time. The TGI in the experiment on OVCAR-4 ovarian, in the experiment on SK-MEL-2 melanoma and with SN12C renal was over 100 µM each time.
Regarding `CC(=O)[O-].CC(=O)[O-].O=C(N/N=C/c1cc(Cl)cc(Cl)c1[OH2+])c1ccncc1.[Co+2]`, the TGI in the experiment on HCC-2998 colon, in the experiment on HOP-62 NSCLC, with LOX IMVI melanoma, with M14 melanoma, in the experiment on NCI-H460 lung and with OVCAR-3 ovarian was over 100 µM each time. In addition, the TGI with SN12C renal was over 100 µM.
Turning to `CC(=O)c1ccc(Oc2ccc(/C(C)=N\N=C(N)N)cc2)cc1`, the TGI in the experiment with HCC-2998 colon turned out to be 20.8 µM; in the experiment on HOP-62 NSCLC, 9.72 µM; in the experiment on LOX IMVI melanoma, 13.1 µM; in the experiment with M14 melanoma, 4.76 µM; in the experiment on NCI-H460 lung, 10.5 µM; with OVCAR-3 ovarian, 4.89 µM. Further, the TGI in the experiment on OVCAR-4 ovarian worked out at 23 µM; in the experiment with SK-MEL-2 melanoma, 6.17 µM; with SN12C renal, 13.4 µM.
Consider `C=C1c2c(cc3c(c2O)c(=O)c2ccccc2n3C)OC1(C)C`, for which the TGI in the experiment with LOX IMVI melanoma, in the experiment on M14 melanoma, in the experiment with NCI-H460 lung, with OVCAR-3 ovarian, in the experiment on SK-MEL-2 melanoma and in the experiment on SN12C renal was over 100 µM in each case.
For the compound `Cc1nc2c(o1)C(=O)c1ccccc1/C2=N/c1ccccn1`, the TGI in the experiment with HCC-2998 colon was over 100 µM; with HOP-62 NSCLC, 37.8 µM; in the experiment on LOX IMVI melanoma it was 39.9 µM; in the experiment with M14 melanoma, 33.6 µM; with MCF7 breast it was 33.9 µM; with NCI-H460 lung it was 29.8 µM. The TGI in the experiment on OVCAR-3 ovarian came out at 49.3 µM; with OVCAR-4 ovarian, 28.2 µM; in the experiment on SK-MEL-2 melanoma it was 43.6 µM; in the experiment with SN12C renal, 64.1 µM.
With `O=P(O)(O)C(CSc1ccccc1)P(=O)(O)O`, the TGI is over 100 µM in the experiment on HCC-2998 colon; over 100 µM with HOP-62 NSCLC; over 100 µM in the experiment on LOX IMVI melanoma; over 100 µM with MCF7 breast; over 100 µM with NCI-H460 lung; over 69.2 µM with OVCAR-3 ovarian. The TGI with OVCAR-4 ovarian, in the experiment on SK-MEL-2 melanoma and in the experiment on SN12C renal was over 100 µM in each case.
As for `CCc1n[nH]c(=O)n1N1C(=O)C2CC=CCC2C1=O` (centres undefined), the TGI in the experiment on HCC-2998 colon, in the experiment with HOP-62 NSCLC, in the experiment on LOX IMVI melanoma, in the experiment on M14 melanoma, in the experiment with MCF7 breast and with NCI-H460 lung was over 100 µM in each case. For the same compound, the TGI in the experiment with OVCAR-3 ovarian, with OVCAR-4 ovarian, in the experiment on SK-MEL-2 melanoma, with SN12C renal and in the experiment on T-47D breast was over 100 µM in each case.
For `CC(=O)O[C@H]1CC[C@]2(C)[C@H]3CC[C@@H]4[C@H]5[C@H](C(C)C)CC[C@]5(C(=O)OCC(CO)(CO)N=C(N)N)CC[C@@]4(C)[C@]3(C)CC[C@H]2C1(C)C`, the GI50 is 1.7 µM in the experiment with DU-145 prostate; 1.82 µM with HOP-62 NSCLC; 1.67 µM in the experiment with OVCAR-3 ovarian; 1.68 µM in the experiment on OVCAR-4 ovarian; 1.51 µM in the experiment on T-47D breast. For the same compound, the TGI in the experiment on DU-145 prostate was 3.2 µM; in the experiment with HOP-62 NSCLC it was 3.56 µM; with OVCAR-3 ovarian it was 3.2 µM; in the experiment on OVCAR-4 ovarian, 3.32 µM; in the experiment on T-47D breast, 2.91 µM.
For `COc1cccc2cc(C(N)=O)c(=N)oc12`, the TGI in the experiment with DU-145 prostate, in the experiment on HCC-2998 colon, in the experiment on LOX IMVI melanoma, in the experiment with M14 melanoma, in the experiment with NCI-H460 lung and in the experiment with OVCAR-3 ovarian was over 100 µM throughout. Besides, the TGI with OVCAR-4 ovarian is over 100 µM; with SK-MEL-2 melanoma, 60.7 µM; in the experiment with SN12C renal, over 100 µM; with T-47D breast it was over 100 µM.
Regarding `CCSC1=N/C(=C\c2ccccc2O)C(Nc2ccc(C)cc2)=N1`, the TGI with DU-145 prostate is over 100 µM; in the experiment with HOP-62 NSCLC it was over 100 µM; in the experiment with LOX IMVI melanoma it was over 100 µM; in the experiment on M14 melanoma it was over 100 µM; with NCI-H460 lung, over 100 µM; with OVCAR-3 ovarian, 67.3 µM. In addition, the TGI in the experiment on SK-MEL-2 melanoma, in the experiment with SN12C renal and in the experiment on T-47D breast was over 100 µM each time.
Turning to `O=C(NO)c1coc2ccccc2c1=O`, the TGI in the experiment with HCC-2998 colon, in the experiment with LOX IMVI melanoma, in the experiment with M14 melanoma, with OVCAR-4 ovarian, in the experiment on SK-MEL-2 melanoma and in the experiment on SN12C renal was over 100 µM each time.
For the compound `Cc1ccc(C(=O)C(C)N)cc1` (centres undefined), the TGI in the experiment on HCC-2998 colon, with HOP-62 NSCLC, with LOX IMVI melanoma, with M14 melanoma, in the experiment on NCI-H460 lung and with OVCAR-3 ovarian was over 100 µM throughout. Moreover, the TGI in the experiment with OVCAR-4 ovarian, with SK-MEL-2 melanoma and in the experiment on SN12C renal was over 100 µM each time.
`Cc1csc2nc(-c3ccc([N+](=O)[O-])cc3)c(/C=N/N=C(N)N)n12`: the TGI with DU-145 prostate was found to be 4.3 µM; in the experiment with HCC-2998 colon, 1.59 µM; with HOP-62 NSCLC, 3.28 µM; in the experiment on LOX IMVI melanoma, 3.63 µM; with M14 melanoma it was 3.41 µM; with NCI-H460 lung, 3.43 µM. The TGI is 5.7 µM with OVCAR-3 ovarian; 3.04 µM in the experiment on OVCAR-4 ovarian; 2.86 µM in the experiment on SK-MEL-2 melanoma; 3.28 µM with SN12C renal; over 100 µM in the experiment with T-47D breast.
Regarding `CCOP(=O)(Nc1ccc(-c2ccccc2)cc1)OCC`, the TGI in the experiment with DU-145 prostate, in the experiment on HCC-2998 colon, in the experiment on HOP-62 NSCLC, in the experiment with M14 melanoma, in the experiment with MCF7 breast and in the experiment on NCI-H460 lung was over 100 µM throughout. Further, the TGI in the experiment with OVCAR-3 ovarian, with OVCAR-4 ovarian and in the experiment on SK-MEL-2 melanoma was over 100 µM each time.
With `CCCNC(=S)N/N=C/c1cccc(C)n1`, the TGI with HCC-2998 colon is over 100 µM; in the experiment on HOP-62 NSCLC it was over 100 µM; in the experiment on LOX IMVI melanoma it was over 100 µM; with M14 melanoma, 27.2 µM; with MCF7 breast, over 100 µM; with OVCAR-4 ovarian, over 100 µM. Also, the figures for the TGI with SK-MEL-2 melanoma, in the experiment with SN12C renal and in the experiment with T-47D breast were 58.9 µM, over 100 µM and over 100 µM, respectively.
For the compound `O=c1[nH]c2ccc(CC(=S)N3CCOCC3)cc2s1`, the TGI with DU-145 prostate, in the experiment on HOP-62 NSCLC, in the experiment on LOX IMVI melanoma, in the experiment on M14 melanoma, with MCF7 breast and with NCI-H460 lung was over 100 µM each time. For the same compound, the TGI in the experiment with OVCAR-3 ovarian, with SK-MEL-2 melanoma and with SN12C renal was over 100 µM each time.
With `CC(C)(C)[Si](C)(C)OCCCC#CCO`, the TGI in the experiment with HCC-2998 colon, in the experiment with LOX IMVI melanoma, in the experiment on M14 melanoma, with NCI-H460 lung, with OVCAR-4 ovarian and in the experiment with SK-MEL-2 melanoma was over 100 µM throughout. Besides, the TGI in the experiment with SN12C renal was over 100 µM.
